In the data set the test system is rodent lifetime carcinogenesis bioassay, tumor incidence TD50. Briefly: chronic cancer bioassays in animals – CPDB, compiled studies (AID 1745844).
[1] abbreviates: mouse, strain B6C3F1, females, in feed, site: any site (literature study), lesion: several types, types named in the paper, dosed 103 weeks, study length 104 weeks.
[2] abbreviates: mouse, strain B6C3F1, males, in feed, site: any site (literature study), lesion: several types, types named in the paper, dosed 103 weeks, study length 104 weeks.
[3] abbreviates: rat, strain Fischer 344, females, in feed, site: liver, lesion: hepatocellular adenoma + hepatocellular carcinoma + neoplastic nodule, dosed 103 weeks, study length 104 weeks.

The source made the active and inactive calls. No rule for the calls is given here.

A word on the TD50: it is the 50% point of the dose-response relation for the toxic effect studied. As for `COc1ccc(C)cc1N`, the TD50 is, setting by setting: (mouse, strain B6C3F1, females, in feed, site: any site (literature study), lesion: several types, types named in the paper, dosed 97 weeks, study length 97 weeks) 75 mg/kg/day; (mouse, strain B6C3F1, females, in feed, site: liver + urinary bladder, lesion: hepatocellular adenoma + hepatocellular carcinoma + carcinoma, NOS + neoplasm, NOS, malignant + squamous-cell carc, dosed 97 weeks, study length 97 weeks) 69 mg/kg/day; (mouse, strain B6C3F1, females, in feed, site: liver, lesion: hepatocellular adenoma + hepatocellular carcinoma + neoplastic nodule, dosed 97 weeks, study length 97 weeks) 301 mg/kg/day; (mouse, strain B6C3F1, females, in feed, site: liver, lesion: hepatocellular adenoma + hepatocellular carcinoma, dosed 97 weeks, study length 97 weeks) 301 mg/kg/day; (mouse, strain B6C3F1, females, in feed, site: liver, lesion: hepatocellular carcinoma, dosed 97 weeks, study length 97 weeks) 315 mg/kg/day; (mouse, strain B6C3F1, females, in feed, site: lung, lesion: alveolar/bronchiolar adenoma + alveolar/bronchiolar carcinoma, dosed 97 weeks, study length 97 weeks) 3810 mg/kg/day. In addition, the TD50 is 69 mg/kg/day (mouse, strain B6C3F1, females, in feed, site: urinary bladder, lesion: carcinoma, NOS + neoplasm, NOS, malignant + squamous-cell carcinoma + transitional-cell carcinoma, dosed 97 weeks, study length 97 weeks); 70.1 mg/kg/day (mouse, strain B6C3F1, females, in feed, site: urinary bladder, lesion: carcinoma, NOS + squamous-cell carcinoma + transitional-cell carcinoma, dosed 97 weeks, study length 97 weeks); 46.4 mg/kg/day (mouse, strain B6C3F1, males, in feed, site: any site (literature study), lesion: several types, types named in the paper, dosed 97 weeks, study length 97 weeks); 255 mg/kg/day (mouse, strain B6C3F1, males, in feed, site: liver, lesion: hepatocellular adenoma + hepatocellular carcinoma + neoplastic nodule, dosed 97 weeks, study length 97 weeks); 1170 mg/kg/day (mouse, strain B6C3F1, males, in feed, site: lung, lesion: alveolar/bronchiolar adenoma + alveolar/bronchiolar carcinoma, dosed 97 weeks, study length 97 weeks); 44.7 mg/kg/day (mouse, strain B6C3F1, males, in feed, site: urinary bladder, lesion: squamous-cell carcinoma + transitional-cell carcinoma, dosed 97 weeks, study length 97 weeks). Moreover, the TD50 is 1490 mg/kg/day (rat, strain Fischer 344, females, in feed, site: adrenal gland, lesion: cortical adenoma, dosed 104 weeks, study length 105 weeks); 93.8 mg/kg/day (rat, strain Fischer 344, females, in feed, site: any site (literature study), lesion: several types, types named in the paper, dosed 104 weeks, study length 105 weeks); 2180 mg/kg/day (rat, strain Fischer 344, females, in feed, site: liver, lesion: hepatocellular adenoma + hepatocellular carcinoma + neoplastic nodule, dosed 104 weeks, study length 105 weeks); 110 mg/kg/day (rat, strain Fischer 344, females, in feed, site: nasal cavity + urinary bladder, lesion: olfactory neuroblastoma + neoplasm, NOS + papillary carcinoma + squamous-cell carcinoma + transitional-cell carcinoma, dosed 104 weeks, study length 105 weeks); 1190 mg/kg/day (rat, strain Fischer 344, females, in feed, site: nasal cavity, lesion: olfactory neuroblastoma, dosed 104 weeks, study length 105 weeks); 110 mg/kg/day (rat, strain Fischer 344, females, in feed, site: urinary bladder, lesion: neoplasm, NOS + papillary carcinoma + squamous-cell carcinoma + transitional-cell carcinoma, dosed 104 weeks, study length 105 weeks). The TD50 is 913 mg/kg/day (rat, strain Fischer 344, females, in feed, site: uterus, lesion: endometrial stromal polyp, dosed 104 weeks, study length 105 weeks); 98 mg/kg/day (rat, strain Fischer 344, males, in feed, site: any site (literature study), lesion: several types, types named in the paper, dosed 104 weeks, study length 105 weeks); 3510 mg/kg/day (rat, strain Fischer 344, males, in feed, site: brain + brain stem, lesion: glioma, NOS, dosed 104 weeks, study length 105 weeks); 76.3 mg/kg/day (rat, strain Fischer 344, males, in feed, site: liver + nasal cavity + nasopharynx + urinary bladder, lesion: hepatocellular carcinoma + mixed hepato/cholangio carcinoma + neoplastic nodule + adenoma, NOS + carcinoma, NOS + neuroblastoma + ne, dosed 104 weeks, study length 105 weeks); 443 mg/kg/day (rat, strain Fischer 344, males, in feed, site: liver, lesion: hepatocellular adenoma + hepatocellular carcinoma + neoplastic nodule, dosed 104 weeks, study length 105 weeks); 406 mg/kg/day (rat, strain Fischer 344, males, in feed, site: liver, lesion: hepatocellular carcinoma + mixed hepato/cholangio carcinoma + neoplastic nodule, dosed 104 weeks, study length 105 weeks). For the same compound, the TD50 is 4620 mg/kg/day (rat, strain Fischer 344, males, in feed, site: nasal cavity + nasopharynx, lesion: carcinoma, NOS + neoplasm, NOS, malignant + adenocarcinoma, NOS, dosed 104 weeks, study length 105 weeks); 397 mg/kg/day (rat, strain Fischer 344, males, in feed, site: nasal cavity, lesion: adenoma, NOS + carcinoma, NOS + neuroblastoma + neoplasm, NOS, malignant + olfactory neuroblastoma, dosed 104 weeks, study length 105 weeks); 450 mg/kg/day (rat, strain Fischer 344, males, in feed, site: nasal cavity, lesion: neuroblastoma + olfactory neuroblastoma, dosed 104 weeks, study length 105 weeks); 165 mg/kg/day (rat, strain Fischer 344, males, in feed, site: testis, lesion: interstitial-cell tumor, dosed 104 weeks, study length 105 weeks); 88.4 mg/kg/day (rat, strain Fischer 344, males, in feed, site: urinary bladder, lesion: papillary carcinoma + squamous-cell carcinoma + transitional-cell carcinoma + transitional-cell papilloma + undifferentiated car, dosed 104 weeks, study length 105 weeks).

For `COC(=O)C(c1ccccc1)C1CCCCN1N=O` (configuration not stated), the carcinogen call was “negative (inactive)” (mouse, strain (C57BL/6 x BALB/c)F1, females, in drinking water, site: any site (literature study), lesion: several types, types named in the paper, dosed 73 weeks, study length 106 weeks); “negative (inactive)” (mouse, strain (C57BL/6 x BALB/c)F1, females, in drinking water, site: liver, lesion: one or several types, types not named, dosed 73 weeks, study length 106 weeks); “negative (inactive)” (mouse, strain (C57BL/6 x BALB/c)F1, females, in drinking water, site: lung, lesion: one or several types, types not named, dosed 73 weeks, study length 106 weeks); “negative (inactive)” (mouse, strain (C57BL/6 x BALB/c)F1, males, in drinking water, site: any site (literature study), lesion: several types, types named in the paper, dosed 73 weeks, study length 106 weeks); “negative (inactive)” (mouse, strain (C57BL/6 x BALB/c)F1, males, in drinking water, site: lung, lesion: one or several types, types not named, dosed 73 weeks, study length 106 weeks).

Turning to `CCCCCCCC/C=C/CCCCCCCC(=O)OCCOCC(OCCO)C1OCC(OCCO)C1OCCO` (configuration not stated), the TD50 under setting [1] is 42900 mg/kg/day (inactive); the TD50 (mouse, strain B6C3F1, females, in feed, site: lung, lesion: alveolar/bronchiolar adenoma + alveolar/bronchiolar carcinoma, dosed 103 weeks, study length 104 weeks) was 332000 mg/kg/day; the TD50 under setting [3] was determined as 15800 mg/kg/day; the TD50 (rat, strain Fischer 344, females, in feed, site: liver, lesion: hepatocellular adenoma, dosed 103 weeks, study length 104 weeks) is 15800 mg/kg/day (inactive); the TD50 (rat, strain Fischer 344, males, in feed, site: adrenal medulla, lesion: pheochromocytoma benign, bilateral + pheochromocytoma, malignant + pheochromocytoma, benign, dosed 99 weeks, study length 99 weeks) is 2580 mg/kg/day; the TD50 (rat, strain Fischer 344, males, in feed, site: any site (literature study), lesion: several types, types named in the paper, dosed 99 weeks, study length 99 weeks) was 3290 mg/kg/day. Also, for the setting “rat, strain Fischer 344, males, in feed, site: liver, lesion: hepatocellular adenoma + hepatocellular carcinoma + neoplastic nodule, dosed 99 weeks, study length 99 weeks”, the TD50 is 217000 mg/kg/day. In addition, the carcinogen call under setting [2] is “negative (inactive)”.

`CC(=O)N[C@@H](CC(C)C)C(=O)N[C@@H](CC(C)C)C(=O)NC(C=O)CCCN=C(N)N` (some centres not stated): the TD50 runs as follows: (mouse, strain A/JJms, females, in feed, site: liver, lesion: liver-cell tumor, type B, dosed 68 weeks, study length 68 weeks) 933 mg/kg/day (inactive); (mouse, strain A/JJms, females, in feed, site: lung, lesion: several types, types named in the paper, dosed 68 weeks, study length 68 weeks) 229 mg/kg/day (inactive); (mouse, strain A/JJms, males, in feed, site: liver, lesion: several types, types named in the paper, dosed 68 weeks, study length 68 weeks) 55.8 mg/kg/day; (mouse, strain A/JJms, males, in feed, site: lung, lesion: several types, types named in the paper, dosed 68 weeks, study length 68 weeks) 422 mg/kg/day (inactive).

For the compound `CC[C@H]1OC(=O)[C@H](C)[C@@H](O[C@H]2C[C@@](C)(OC)[C@@H](O)[C@H](C)O2)[C@H](C)[C@@H](O[C@@H]2O[C@H](C)C[C@H](N(C)C)[C@H]2O)[C@](C)(O)C[C@@H](C)C(=O)[C@H](C)[C@@H](O)[C@]1(C)O`, the carcinogen call reads like this: under setting [1], “negative (inactive)”; under setting [2], “negative (inactive)”; (rat, strain Fischer 344, females, in feed, site: any site (literature study), lesion: several types, types named in the paper, dosed 103 weeks, study length 104 weeks) “negative (inactive)”. In addition, the TD50 is 5850 mg/kg/day under setting [3]; 2020 mg/kg/day (inactive) (rat, strain Fischer 344, males, in feed, site: any site (literature study), lesion: several types, types named in the paper, dosed 103 weeks, study length 104 weeks); 3950 mg/kg/day (rat, strain Fischer 344, males, in feed, site: liver, lesion: hepatocellular adenoma + hepatocellular carcinoma + neoplastic nodule, dosed 103 weeks, study length 104 weeks).

In the case of `Nc1nc(/C=C/c2ccc([N+](=O)[O-])o2)no1`, the TD50 was 105 mg/kg/day (mouse, strain Charles River CD1, females, in feed, site: forestomach, lesion: squamous-cell carcinoma, dosed 31 weeks, study length 75 weeks); 1150 mg/kg/day (mouse, strain Charles River CD1, females, in feed, site: forestomach, lesion: squamous-cell papilloma, dosed 31 weeks, study length 75 weeks); 1010 mg/kg/day (mouse, strain Charles River CD1, females, in feed, site: lung, lesion: adenoma, dosed 31 weeks, study length 75 weeks); 262 mg/kg/day (mouse, strain Charles River CD1, females, in feed, site: thymus gland, lesion: lymphoma, dosed 31 weeks, study length 75 weeks); 29.2 mg/kg/day (mouse, strain Charles River CD1, males, in feed, site: any site (literature study), lesion: several types, types named in the paper, dosed 38 weeks, study length 75 weeks); 130 mg/kg/day (mouse, strain Charles River CD1, males, in feed, site: forestomach, lesion: squamous-cell carcinoma, dosed 38 weeks, study length 75 weeks). The TD50 reads like this: (mouse, strain Charles River CD1, males, in feed, site: forestomach, lesion: squamous-cell papilloma, dosed 38 weeks, study length 75 weeks) 514 mg/kg/day; (mouse, strain Charles River CD1, males, in feed, site: reticuloendothelium, lesion: several types, types named in the paper, dosed 38 weeks, study length 75 weeks) 492 mg/kg/day; (mouse, strain Charles River CD1, males, in feed, site: thymus gland, lesion: lymphoma, dosed 38 weeks, study length 75 weeks) 121 mg/kg/day. Besides, the carcinogen call (mouse, strain Charles River CD1, females, in feed, site: reticuloendothelium, lesion: several types, types named in the paper, dosed 31 weeks, study length 75 weeks) was “positive”.

(Values after PubChem BioAssay AID1745844 (Carcinogenic Potency Database (CPDB), 2022).)
